IC50 data for 29 molecules are collected here from US11649255B2, “Indazoles as hematopoietic progenitor kinase 1 (HPK1) inhibitors and methods using same” (1st Biotherapeutics, Inc., priority 2020, dated 2023).

SMILES strings stand for the structures.

recombinant human HPK1, sequence (Q92918 whole entry): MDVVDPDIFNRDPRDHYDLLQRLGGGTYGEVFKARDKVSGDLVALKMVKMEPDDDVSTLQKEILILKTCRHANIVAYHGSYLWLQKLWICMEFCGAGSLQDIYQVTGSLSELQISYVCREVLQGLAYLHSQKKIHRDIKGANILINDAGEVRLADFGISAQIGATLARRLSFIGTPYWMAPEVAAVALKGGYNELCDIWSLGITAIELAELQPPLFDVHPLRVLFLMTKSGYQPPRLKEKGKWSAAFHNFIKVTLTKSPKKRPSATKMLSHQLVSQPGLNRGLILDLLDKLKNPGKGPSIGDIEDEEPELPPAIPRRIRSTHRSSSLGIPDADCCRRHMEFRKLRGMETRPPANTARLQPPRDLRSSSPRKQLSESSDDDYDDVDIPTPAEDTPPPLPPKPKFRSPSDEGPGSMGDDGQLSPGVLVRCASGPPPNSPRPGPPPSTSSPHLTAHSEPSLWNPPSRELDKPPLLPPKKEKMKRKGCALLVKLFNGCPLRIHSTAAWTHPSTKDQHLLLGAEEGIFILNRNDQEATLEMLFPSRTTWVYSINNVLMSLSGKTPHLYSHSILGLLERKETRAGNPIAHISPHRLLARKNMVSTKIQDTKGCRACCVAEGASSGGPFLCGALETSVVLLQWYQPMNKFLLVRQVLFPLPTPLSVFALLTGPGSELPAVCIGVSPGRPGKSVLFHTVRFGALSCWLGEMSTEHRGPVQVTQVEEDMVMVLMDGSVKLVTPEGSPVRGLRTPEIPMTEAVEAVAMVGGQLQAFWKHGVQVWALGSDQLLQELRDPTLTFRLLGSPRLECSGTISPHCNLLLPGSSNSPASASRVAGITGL

The test deals with recombinant human HPK1 (Homo sapiens (Human), UniProt Q92918). The test is described as follows: HPK1 kinase assay (ADP-Glo). Conditions: 25 μM ATP, MBP substrate. Format: biochemical. The method in brief:
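Activity was read as ADP formed, detected by ADP-Glo luminescence after the reaction of 5 ng recombinant human HPK1 with MBP and ATP (stocks 0.5 μg/μl and 25 μM) for 40 min at 30 °C. Buffer was Tris pH 7.5 with MgCl2, BSA and DTT, with compound in 0.5% DMSO. IC50 came from inhibition curves.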
A general note: ADP-Glo turns the ADP formed in a reaction into a luminescent signal.
Regarding `O=C(Nc1nc2ccc(-c3c(F)ccc4[nH]ncc34)cc2s1)C1CC1` [Example 15, N-(6-(5-fluoro-1H-indazol-4-yl)benzo[d]thiazol-2-yl)cyclopropanecarboxamide], the IC50 is 101 to 500 nM.
Turning to `O=C(Nc1nc2ccc(-c3c(C(F)(F)F)c(F)c(Cl)c4[nH]ncc34)nc2s1)[C@@H]1C[C@@H]1F` [Example 198, (1S,2S)-N-(5-(7-chloro-6-fluoro-5-(trifluoromethyl)-1H-indazol-4-yl)thiazolo[5,4-b]pyridin-2-yl)-2-fluorocyclopropane-1-carboxamide], the IC50 was less than 100 nM.
Turning to `CC(C)(O)c1c(F)c(Cl)c(-c2ccc3nc(NC(=O)[C@@H]4C[C@@H]4F)cn3c2)c2cn[nH]c12` [Example 389, (1S,2S)-N-(6-(5-chloro-6-fluoro-7-(2-hydroxypropan-2-yl)-1H-indazol-4-yl)imidazo[1,2-a]pyridin-2-yl)-2-fluorocyclopropane-1-carboxamide], the IC50 was less than 100 nM.
Consider `C=Cc1ccc2[nH]ncc2c1-c1ccc2nc(NC(=O)[C@@H]3C[C@@H]3F)sc2c1` [Example 35, (1S,2S)-2-fluoro-N-(6-(5-vinyl-1H-indazol-4-yl)benzo[d]thiazol-2-yl)cyclopropane-1-carboxamide], for which the IC50 lay within 101 to 500 nM.
As for `Cc1c(F)c(F)c2[nH]nc(F)c2c1-c1ccc2nc(NC(=O)[C@@H]3C[C@@H]3F)sc2c1` [Example 55, (1S,2S)-2-fluoro-N-(6-(3,6,7-trifluoro-5-methyl-1H-indazol-4-yl)benzo[d]thiazol-2-yl)cyclopropane-1-carboxamide], the figure is 101 to 500 nM; as for `O=C(Nc1nc2ccc(-c3c(Cl)c(F)cc4[nH]ncc34)nc2s1)[C@@H]1C[C@@H]1F` [Example 153, (1S,2S)-N-(5-(5-chloro-6-fluoro-1H-indazol-4-yl)thiazolo[5,4-b]pyridin-2-yl)-2-fluorocyclopropane-1-carboxamide], less than 100 nM.
With `O=C(Nc1cc2cc(-c3c(Cl)c(F)c(N4CCNCC4)c4[nH]ncc34)ccn2n1)[C@@H]1C[C@@H]1F` [Example 500, (1S,2S)-N-(5-(5-chloro-6-fluoro-7-(piperazin-1-yl)-1H-indazol-4-yl)pyrazolo[1,5-a]pyridin-2-yl)-2-fluorocyclopropane-1-carboxamide] the figure was 101 to 500 nM.
With `CN(C)c1c(F)cc2[nH]ncc2c1-c1ccn2nc(NC(=O)[C@@H]3C[C@@H]3F)cc2c1` [Example 454, (1S,2S)-N-(5-(5-(dimethylamino)-6-fluoro-1H-indazol-4-yl)pyrazolo[1,5-a]pyridin-2-yl)-2-fluorocyclopropane-1-carboxamide] the figure was 101 to 500 nM; with `Cc1ccc2[nH]ncc2c1-c1ccc2nc(NC(=O)C3CC3CO)cn2c1` (centres unmarked) [Example 278, 2-(hydroxymethyl)-N-(6-(5-methyl-1H-indazol-4-yl)imidazo[1,2-a]pyridin-2-yl)cyclopropane-1-carboxamide], more than 1000 nM.
Consider `CC(NC(=O)C(F)(F)F)c1c(F)c(Cl)c(-c2ccn3nc(NC(=O)[C@@H]4C[C@@H]4F)cc3c2)c2cn[nH]c12` (stereo partly drawn) [Example 662, (1S,2S)-N-(5-(5-chloro-6-fluoro-7-(1-(2,2,2-trifluoroacetamido)ethyl)-1H-indazol-4-yl)pyrazolo[1,5-a]pyridin-2-yl)-2-fluorocyclopropane-1-carboxamide], for which the IC50 was less than 100 nM.
Turning to `O=C(O)NC1CN(c2c(F)c(Cl)c(-c3ccc4nc(NC(=O)[C@@H]5C[C@@H]5F)sc4c3)c3cn[nH]c23)C1` [Example 88, (1-(5-chloro-6-fluoro-4-(2-((1S,2S)-2-fluorocyclopropane-1-carboxamido)benzo[d]thiazol-6-yl)-1H-indazol-7-yl)azetidin-3-yl)carbamic acid], the IC50 was less than 100 nM.
For the molecule `Cc1c(F)cc2[nH]ncc2c1-c1ccc2nc(NC(=O)[C@@H]3C[C@@H]3F)sc2n1` [Example 147, (1S,2S)-2-fluoro-N-(5-(6-fluoro-5-methyl-1H-indazol-4-yl)thiazolo[5,4-b]pyridin-2-yl)cyclopropane-1-carboxamide], the IC50 is less than 100 nM.
As for `C=C(C)c1c(F)c(Cl)c(-c2ccn3nc(NC(=O)[C@@H]4C[C@@H]4F)cc3c2)c2cn[nH]c12` [Example 639, (1S,2S)-N-(5-(5-chloro-6-fluoro-7-(prop-1-en-2-yl)-1H-indazol-4-yl)pyrazolo[1,5-a]pyridin-2-yl)-2-fluorocyclopropane-1-carboxamide], the figure is less than 100 nM.
In the case of `O=C(Nc1cn2cc(-c3c(Cl)ccc4[nH]ncc34)ccc2n1)[C@@H]1C[C@@H]1F` [Example 237, (1S,2S)-N-(6-(5-chloro-1H-indazol-4-yl)imidazo[1,2-a]pyridin-2-yl)-2-fluorocyclopropane-1-carboxamide], the IC50 is less than 100 nM.
Turning to `O=C(Nc1cc2cc(-c3c(C(F)(F)F)ccc4[nH]ncc34)ccn2n1)[C@@H]1C[C@@H]1F` [Example 451, (1S,2S)-2-fluoro-N-(5-(5-(trifluoromethyl)-1H-indazol-4-yl)pyrazolo[1,5-a]pyridin-2-yl)cyclopropane-1-carboxamide], the IC50 is less than 100 nM.
Take `COC(=O)c1c(F)c(C)c(-c2ccc3nc(NC(=O)[C@@H]4C[C@@H]4F)cn3c2)c2cn[nH]c12` [Example 305, methyl 6-fluoro-4-(2-((1S,2S)-2-fluorocyclopropane-1-carboxamido)imidazo[1,2-a]pyridin-6-yl)-5-methyl-1H-indazole-7-carboxylate]: the IC50 is less than 100 nM.
Turning to `O=C(Nc1cc2cc(-c3c(C4CC4)c(F)cc4[nH]ncc34)ccn2n1)[C@@H]1C[C@@H]1F` [Example 457, (1S,2S)-N-(5-(5-cyclopropyl-6-fluoro-1H-indazol-4-yl)pyrazolo[1,5-a]pyridin-2-yl)-2-fluorocyclopropane-1-carboxamide], the IC50 was less than 100 nM.
In the case of `O=C(Nc1cc2cc(-c3c(Cl)c(F)c(NC4CCC(O)C4)c4[nH]ncc34)ccn2n1)[C@@H]1C[C@@H]1F` (stereo partly drawn) [Example 559, (1S,2S)-N-(5-(5-chloro-6-fluoro-7-((3-hydroxycyclopentyl)amino)-1H-indazol-4-yl)pyrazolo[1,5-a]pyridin-2-yl)-2-fluorocyclopropane-1-carboxamide], the IC50 is less than 100 nM.
With `COc1c(F)c(Cl)c(-c2ccc3nc(NC(=O)[C@@H]4C[C@@H]4F)cn3c2)c2cn[nH]c12` [Example 272, (1S,2S)-N-(6-(5-chloro-6-fluoro-7-methoxy-1H-indazol-4-yl)imidazo[1,2-a]pyridin-2-yl)-2-fluorocyclopropane-1-carboxamide] the figure was less than 100 nM; with `O=C(Nc1cc2cc(-c3c(Cl)c(F)c(C4CCCC4)c4[nH]ncc34)ccn2n1)[C@@H]1C[C@@H]1F` [Example 651, (1S,2S)-N-(5-(5-chloro-7-cyclopentyl-6-fluoro-1H-indazol-4-yl)pyrazolo[1,5-a]pyridin-2-yl)-2-fluorocyclopropane-1-carboxamide], less than 100 nM; with `CCOc1c(F)c(N(C)C)c2[nH]ncc2c1-c1ccn2nc(NC(=O)[C@@H]3C[C@@H]3F)cc2c1` [Example 610, (1S,2S)-N-(5-(7-(dimethylamino)-5-ethoxy-6-fluoro-1H-indazol-4-yl)pyrazolo[1,5-a]pyridin-2-yl)-2-fluorocyclopropane-1-carboxamide], less than 100 nM.
Turning to `COc1c(F)cc2[nH]ncc2c1-c1ccc2nc(NC(=O)[C@@H]3C[C@@H]3F)sc2n1` [Example 155, (1S,2S)-2-fluoro-N-(5-(6-fluoro-5-methoxy-1H-indazol-4-yl)thiazolo[5,4-b]pyridin-2-yl)cyclopropane-1-carboxamide], the IC50 was less than 100 nM.
As for `CSc1ccc(-c2ccc3nc(NC(=O)[C@@H]4C[C@@H]4F)cn3c2)c2cn[nH]c12` [Example 340, (1S,2S)-2-fluoro-N-(6-(7-(methylthio)-1H-indazol-4-yl)imidazo[1,2-a]pyridin-2-yl)cyclopropane-1-carboxamide], the figure is 101 to 500 nM; as for `O=C(Nc1cc2cc(-c3c(Br)c(F)cc4[nH]ncc34)ccn2n1)[C@@H]1C[C@@H]1F` [Example 464, (1S,2S)-N-(5-(5-bromo-6-fluoro-1H-indazol-4-yl)pyrazolo[1,5-a]pyridin-2-yl)-2-fluorocyclopropane-1-carboxamide], less than 100 nM.
With `CN(Cc1ccncc1)c1c(F)c(Cl)c(-c2ccc3nc(NC(=O)[C@@H]4C[C@@H]4F)cn3c2)c2cn[nH]c12` [Example 353, (1S,2S)-N-(6-(5-chloro-6-fluoro-7-(methyl(pyridin-4-ylmethyl)amino)-1H-indazol-4-yl)imidazo[1,2-a]pyridin-2-yl)-2-fluorocyclopropane-1-carboxamide] the figure was less than 100 nM; with `Cc1c(F)cc2[nH]nc(Cl)c2c1-c1ccn2nc(NC(=O)[C@@H]3C[C@@H]3F)cc2c1` [Example 469, (1S,2S)-N-(5-(3-chloro-6-fluoro-5-methyl-1H-indazol-4-yl)pyrazolo[1,5-a]pyridin-2-yl)-2-fluorocyclopropane-1-carboxamide], less than 100 nM.
With `CP(C)(=O)c1c(F)c(Cl)c(-c2ccn3nc(NC(=O)[C@@H]4C[C@@H]4F)cc3c2)c2cn[nH]c12` [Example 478, (1S,2S)-N-(5-(5-chloro-7-(dimethylphosphoryl)-6-fluoro-1H-indazol-4-yl)pyrazolo[1,5-a]pyridin-2-yl)-2-fluorocyclopropane-1-carboxamide], the IC50 fell in the range of 501 to 1000 nM.
In the case of `O=C(Nc1cc2cc(-c3c(Cl)c(F)c(N4CCCC4)c4[nH]ncc34)ccn2n1)[C@@H]1C[C@@H]1F` [Example 499, (1S,2S)-N-(5-(5-chloro-6-fluoro-7-(pyrrolidin-1-yl)-1H-indazol-4-yl)pyrazolo[1,5-a]pyridin-2-yl)-2-fluorocyclopropane-1-carboxamide], the IC50 was less than 100 nM.
With `O=Cc1c(F)c(Cl)c(-c2ccn3nc(NC(=O)[C@@H]4C[C@@H]4F)cc3c2)c2cn[nH]c12` [Example 626, (1S,2S)-N-(5-(5-chloro-6-fluoro-7-formyl-1H-indazol-4-yl)pyrazolo[1,5-a]pyridin-2-yl)-2-fluorocyclopropane-1-carboxamide] the figure was less than 100 nM.

For orientation: IC50 means the midpoint of a concentration-inhibition curve.
